pKi: −log10 of the molar value. Several values for one entry are separate records, joined by “and”; a condition that tells them apart may be missing. Equal entries are not always repeated.
Key:
[1] = biological target: 5-hydroxytryptamine receptor 2A (Rattus norvegicus, UniProt P14842)
[2] = biological target: Sodium-dependent dopamine transporter (Rattus norvegicus, UniProt P23977)
D(2) dopamine receptor = D(2) dopamine receptor (Rattus norvegicus, UniProt P61169)
[3] = biological target: T1, Alpha-1A adrenergic receptor (Rattus norvegicus, UniProt P43140)
T1 sequence (P43140 whole entry): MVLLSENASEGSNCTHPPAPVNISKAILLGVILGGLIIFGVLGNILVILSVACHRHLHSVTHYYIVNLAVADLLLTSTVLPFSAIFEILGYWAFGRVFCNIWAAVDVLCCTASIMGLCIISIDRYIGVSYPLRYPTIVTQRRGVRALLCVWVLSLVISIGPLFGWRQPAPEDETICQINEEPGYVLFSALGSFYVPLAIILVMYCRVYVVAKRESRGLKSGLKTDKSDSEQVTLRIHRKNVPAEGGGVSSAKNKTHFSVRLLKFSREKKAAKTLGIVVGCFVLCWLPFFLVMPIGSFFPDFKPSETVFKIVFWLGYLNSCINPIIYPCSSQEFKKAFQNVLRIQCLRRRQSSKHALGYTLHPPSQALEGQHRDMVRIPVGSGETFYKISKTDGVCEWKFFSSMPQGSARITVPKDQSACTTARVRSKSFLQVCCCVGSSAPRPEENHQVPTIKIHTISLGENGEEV

[4] = biological target: T2, Muscarinic acetylcholine receptor M2 (Rattus norvegicus, UniProt P10980)
T2 sequence (P10980 whole entry): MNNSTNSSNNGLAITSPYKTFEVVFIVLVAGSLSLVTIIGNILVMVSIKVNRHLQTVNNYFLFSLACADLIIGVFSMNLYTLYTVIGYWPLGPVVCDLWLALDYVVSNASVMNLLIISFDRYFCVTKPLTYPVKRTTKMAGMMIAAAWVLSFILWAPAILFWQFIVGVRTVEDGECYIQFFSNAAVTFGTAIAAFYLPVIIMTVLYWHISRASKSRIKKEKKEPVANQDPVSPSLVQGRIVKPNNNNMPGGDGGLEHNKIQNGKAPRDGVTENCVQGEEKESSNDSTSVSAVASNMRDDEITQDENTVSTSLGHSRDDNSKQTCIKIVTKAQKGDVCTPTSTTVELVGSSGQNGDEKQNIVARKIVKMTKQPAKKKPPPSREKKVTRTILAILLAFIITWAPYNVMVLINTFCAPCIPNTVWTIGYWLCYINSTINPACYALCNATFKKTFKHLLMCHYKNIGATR

D(1A) dopamine receptor = D(1A) dopamine receptor (Rattus norvegicus, UniProt P18901)
Sequence of D(1A) dopamine receptor (P18901 whole entry): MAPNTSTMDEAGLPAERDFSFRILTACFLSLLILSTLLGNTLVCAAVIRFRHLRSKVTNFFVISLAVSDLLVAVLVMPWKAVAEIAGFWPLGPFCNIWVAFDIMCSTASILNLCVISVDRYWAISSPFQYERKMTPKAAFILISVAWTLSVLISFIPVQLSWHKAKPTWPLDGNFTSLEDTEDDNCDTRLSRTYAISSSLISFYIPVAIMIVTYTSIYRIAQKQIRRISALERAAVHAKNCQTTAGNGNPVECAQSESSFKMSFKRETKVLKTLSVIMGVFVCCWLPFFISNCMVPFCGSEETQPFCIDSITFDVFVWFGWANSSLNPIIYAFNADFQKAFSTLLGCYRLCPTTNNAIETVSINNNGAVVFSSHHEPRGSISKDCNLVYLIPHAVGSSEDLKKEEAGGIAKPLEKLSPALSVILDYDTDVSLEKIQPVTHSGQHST

[5] = biological target: Norepinephrine transporter (Rattus norvegicus, UniProt Q9JIA2)

Sequence of D(2) dopamine receptor (P61169 whole entry): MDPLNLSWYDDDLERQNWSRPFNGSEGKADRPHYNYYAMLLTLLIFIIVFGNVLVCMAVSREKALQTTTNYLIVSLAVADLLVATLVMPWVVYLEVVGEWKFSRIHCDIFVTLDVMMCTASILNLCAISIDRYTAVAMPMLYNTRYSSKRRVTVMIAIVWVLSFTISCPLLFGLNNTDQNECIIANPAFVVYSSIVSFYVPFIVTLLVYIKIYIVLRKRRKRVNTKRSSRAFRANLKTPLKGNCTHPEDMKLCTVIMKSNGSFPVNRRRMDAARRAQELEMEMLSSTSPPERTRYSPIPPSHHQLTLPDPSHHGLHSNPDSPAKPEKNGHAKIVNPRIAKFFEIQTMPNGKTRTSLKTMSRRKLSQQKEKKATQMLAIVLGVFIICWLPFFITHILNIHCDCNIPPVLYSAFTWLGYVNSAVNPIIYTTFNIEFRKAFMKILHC
Sequence of Sodium-dependent dopamine transporter (P23977 whole entry): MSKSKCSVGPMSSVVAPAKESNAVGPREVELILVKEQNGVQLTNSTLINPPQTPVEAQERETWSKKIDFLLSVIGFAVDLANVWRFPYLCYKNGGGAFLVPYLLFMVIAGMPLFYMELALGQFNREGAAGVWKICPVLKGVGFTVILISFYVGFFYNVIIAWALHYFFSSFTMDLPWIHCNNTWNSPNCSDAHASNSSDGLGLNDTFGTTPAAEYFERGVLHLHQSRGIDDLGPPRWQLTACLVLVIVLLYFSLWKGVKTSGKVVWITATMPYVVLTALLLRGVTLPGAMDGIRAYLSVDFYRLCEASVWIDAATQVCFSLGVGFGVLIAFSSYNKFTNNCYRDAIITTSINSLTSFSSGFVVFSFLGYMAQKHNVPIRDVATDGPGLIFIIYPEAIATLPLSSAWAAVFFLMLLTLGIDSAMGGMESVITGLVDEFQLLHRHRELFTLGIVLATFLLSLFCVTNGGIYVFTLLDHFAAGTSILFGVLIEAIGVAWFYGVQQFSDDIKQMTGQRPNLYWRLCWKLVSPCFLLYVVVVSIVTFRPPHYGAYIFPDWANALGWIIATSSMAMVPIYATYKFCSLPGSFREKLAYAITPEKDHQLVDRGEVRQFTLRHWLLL
Sequence of 5-hydroxytryptamine receptor 2A (P14842 whole entry): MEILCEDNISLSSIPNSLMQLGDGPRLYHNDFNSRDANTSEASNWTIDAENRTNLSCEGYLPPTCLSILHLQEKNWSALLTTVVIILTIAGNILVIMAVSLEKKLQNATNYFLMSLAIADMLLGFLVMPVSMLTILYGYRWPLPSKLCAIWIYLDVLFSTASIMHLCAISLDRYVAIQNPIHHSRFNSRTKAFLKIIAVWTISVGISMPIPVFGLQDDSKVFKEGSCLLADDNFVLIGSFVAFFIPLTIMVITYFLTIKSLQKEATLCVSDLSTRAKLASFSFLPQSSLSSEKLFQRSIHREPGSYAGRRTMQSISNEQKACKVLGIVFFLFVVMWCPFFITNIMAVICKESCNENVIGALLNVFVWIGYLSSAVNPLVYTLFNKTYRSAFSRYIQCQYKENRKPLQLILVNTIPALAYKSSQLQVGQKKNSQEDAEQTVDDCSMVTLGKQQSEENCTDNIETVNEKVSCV

Structure (SMILES): CNc1cc(OC)c(C(=O)NCCN(C)Cc2ccc(I)cc2)cc1Cl [CAS_130377]
- pKi [1]: 5.75
- pKi [2]: 6.68
- pKi (D(2) dopamine receptor): 9.89 and 9.67
- pKi [3]: 7.21
- pKi [4]: 6.96
- pKi (D(1A) dopamine receptor): 5.73
- pKi [5]: 5.57

— BindingDB's records for doi:10.1016/0024-3205(89)90523-7 (Nida Addiction Research Center, 1989)
